Non-standard residues stand in square brackets, D forms with d. Residues, ends and D or L forms follow the SMILES beside them. No end group written: not given here. Ahx = NCCCCCC(=O)O
What was measured:
H9c2 cells = assay: STS-induced DNA fragmentation (Cell Death detection ELISA PLUS) in H9c2 cells; assay type: cell-based, rat; details: rat H9c2 (model for cardiac cells); FIG. 5C
Method: FIG. 5: In vitro evaluation of the anti-apoptotic activity of CPPs and CPP-conjugates. Workflow and quantitation of DNA fragmentation in (A) C2C12 cells, (B) primary cardiomyocytes, (C) H9c2 cells and (D) NG108-15 cells. Data were normalized to 100% STS. Data shown are the means±SEM, with n≧5. Cells were seeded in 24-well plates and grown overnight. The next day, the cells were incubated with STS alone or with STS+1 μM peptide (in OPTI-MEM) (OPTI-MEM® is a modification of Eagle's Minimum Essential Media, buffered with HEPES and sodium bicarbonate, and supplemented with hypoxanthine, thymidine, sodium pyruvate, L-glutamine, trace elements, and growth factors) (STS concentration and incubation time for each cells are given in the figure). Thereafter, solutions were removed, replaced by complete medium and further incubated for 40 h. Following the regeneration phase, the cells were lyzed and DNA fragmentation was detected according to manufacturer's instructions (Cell Death detection ELISA^PLUS kit—Roche Diagnostics). […]
Thereafter, the capacity of these peptides to inhibit apoptosis induced by staurosporine was evaluated. Apoptosis was determined using the Cell Death detection ELISA^PLUS kit (Roche) measuring the DNA fragmentation.
The anti-apoptotic effects of the peptides were also analyzed in murine NG118-15 (model for neuronal cells) (FIG. 5D), in murine C2C12 (model for muscle cells) (FIG. 5A) and in rat H9c2 (model for cardiac cells) (FIG. 5C). The highest reduction in DNA fragmentation were observed using Bpep-DAXXp in NG118-15 (66% reduction) using Tat-DAXXp in C2C12 (24% reduction) and Pip2b-DAXXp in H9c2 (31% reduction).

kidney graft = assay: Cold ischemia/reperfusion injury during kidney transplantation; assay type: in vivo, rat; details: preliminary
Excerpt: FIG. 17: Preliminary data on cold ischemia/reperfusion injury during kidney transplantation. Brain death and prolonged cold ischemia are major contributors to the poorer long-term outcome of transplants from deceased donor kidney transplants, with an even higher impact if expanded criteria donors (‘marginal organs’) are used. Targeting ischemia-reperfusion (IR) injury-related intragraft inflammation is an attractive concept to improve the outcome of those grafts. (A) Workflow of cold ischemia/reperfusion during kidney transplantation in rat. After a 24 h cold ischemia, the kidney graft was transplanted orthotopically into male LEW recipients using standard microsurgical techniques. Peptides were injected immediately after reperfusion in a single i.v injection at 1 mg/kg. Three days after transplantation, grafts were harvested for RT-PCR analysis (n=3). (B) Total RNA was reverse transcribed into cDNA and subjected to quantitative real-time RT-PCR utilizing the GENEAMP® 5700 Sequence Detection System (Applied Biosystems, Weiterstadt, Germany). The TAQMAN®-PCR reactions for ICAM-1, IFN-γ, TNF-α, interleukin (IL)-6 and bcl-2 (synthesized by Metabion, Martinsried, Germany) were performed in a final volume of 25 μl.

[1] = 1 mg/kg single i.v. after reperfusion, kidney graft 3 days after transplantation, RT-PCR

Molecule | reduction in DNA fragmentation (H9c2 cells) | mRNA expression of ICAM-1 (kidney graft; [1]) | mRNA expression of IFN-γ (kidney graft; [1]) | protection from ischemia-reperfusion injuries (kidney graft; 1 mg/kg, renal transplantation model (Rat))
CC[C@H](C)[C@H](NC(=O)[C@H](Cc1c[nH]cn1)NC(=O)[C@@H](NC(=O)[C@H](CCCNC(=N)N)NC(=O)CCCCCNC(=O)[C@H](CCCNC(=N)N)NC(=O)[C@H](CCCNC(=N)N)NC(=O)CCCCCNC(=O)[C@H](CCCNC(=N)N)NC(=O)[C@H](CCCNC(=N)N)NC(=O)CCCCCNC(=O)[C@@H](N)CCCNC(=N)N)[C@@H](C)CC)C(=O)N[C@@H](CC(C)C)C(=O)N[C@@H](Cc1ccccc1)C(=O)N[C@@H](CCC(N)=O)C(=O)N[C@@H](CC(N)=O)C(=O)N[C@H](CCCNC(=N)N)C(=O)N[C@@H](CCCNC(=N)N)C(=O)N[C@@H](CCSC)C(=O)N[C@@H](CCCCN)C(=O)N[C@@H](Cc1c[nH]c2ccccc12)C(=O)N[C@@H](Cc1c[nH]cn1)C(=O)N[C@@H](CCCCN)C(=O)N[C@@H](CCCCN)C(=O)N[C@@H](CCCCN)C(=O)N[C@@H](CO)C(=O)N[C@@H](CCCNC(=N)N)C(=O)N[C@@H](CCCCN)C(=O)N[C@@H](CCC(=O)O)C(=O)N[C@@H](CCCCN)C(=O)N[C@@H](CCCCN)C(=O)N[C@@H](CCC(N)=O)C(=O)N[C@H](C(=O)NCC(=O)N[C@@H](CO)C(=O)NCC(=O)N1CCC[C@H]1C(=O)N[C@@H](CC(C)C)C(=O)NCC(N)=O)[C@@H](C)O [Pip2b-DAXXp, (RXR)3-IHILFQNrRMKWHK-KKSRKEKKQTGSGPLG-NH2] (H-R[Ahx]RR[Ahx]RR[Ahx]RIHILFQN[dR]RMKWHKKKSRKEKKQTGSGPLG-NH2; N-terminus assumed) | 31% |  |  | 
GRKKRRQRRRPPQKKSRKEKKQTGSGPLG-NH2 [Tat-DAXXp, GRKKRRQRRRPPQ-KKSRKEKKQTGSGPLG-NH2] |  | reduction in mRNA expression | reduction in mRNA expression | able to protect from ischemia-reperfusion injuries

Source: patent publication US9814758B2, “Inhibitors of apoptosis and uses thereof” (CENTRE NATIONAL DE LA RECHERCHE SCIENTIFIQUE-CNRS, priority 2010, dated 2017)
